melting point	SMILES
184 to 187 °C	CCc1ccc(Cc2ccncc2O[C@@H]2S[C@H](CO)[C@@H](O)[C@H](O)[C@H]2O)cc1 [Compound 20, 4′-(4′-ethylbenzyl)pyridin-3′-yl 5-thio-β-D-glucopyranoside]
181 to 183.5 °C	CCc1ccc(Cc2nccnc2O[C@@H]2S[C@H](CO)[C@@H](O)[C@H](O)[C@H]2O)cc1 [Compound 23, 3′-(4′-ethylbenzyl)-1′H-pyrazin-2′-yl 5-thio-β-D-glucopyranoside]
143 to 147.5 °C	CCc1ccc(Cc2c(C)nc(C)nc2O[C@@H]2S[C@H](CO)[C@@H](O)[C@H](O)[C@H]2O)cc1 [Compound 24, 5′-(ethylbenzyl)-2′,6′-dimethyl-3′H-pyrimidin-4′-yl 5-thio-β-D-glucopyranoside]
194.5 to 195 °C	OCCc1ccc(Cc2ccncc2O[C@@H]2S[C@H](CO)[C@@H](O)[C@H](O)[C@H]2O)cc1 [Compound 32, 4′-[4′-(2′-hydroxyethyl)benzyl]pyridin-3′-yl 5-thio-β-D-glucopyranoside]

The remaining lines, values behind:

SMILES	melting point
CCc1ccc(Cc2c(O[C@@H]3S[C@H](CO)[C@@H](O)[C@H](O)[C@H]3O)nn(C(C)C)c2C)cc1 [Compound 1, 4′-(4′-ethylbenzyl)-1′-isopropyl-5′-methyl-1′H-pyrazol-3′-yl 5-thio-β-D-glucopyranoside]	54 to 58.5 °C
COc1ccc(Cc2c(O[C@@H]3S[C@H](CO)[C@@H](O)[C@H](O)[C@H]3O)n[nH]c2C)cc1F [Compound 4, 4′-[(3′-fluoro-4′-methoxyphenyl)methyl]-5′-methyl-1′H-pyrazol-3′-yl 5-thio-β-D-glucopyranoside]	145 to 147 °C
CCOC(=O)OC[C@H]1S[C@@H](Oc2nn(C(=O)OCC)c(C)c2Cc2ccc(OC)cc2)[C@H](O)[C@@H](O)[C@@H]1O [Compound 8, 1′-ethoxycarbonyl-4′-[(4′-methoxyphenyl)methyl]-5′-methyl-pyrazol-3′-yl 6-O-ethoxycarbonyl-5-thio-β-D-glucopyranoside]	106 to 110 °C
